Data as given in paper PMC5731253 (Journal of medicinal chemistry, 2017).
Where two headings read alike, the source gives them in different places.

Key:
[1] = tested on: human embryonic lung (HEL) fibroblasts
[2] = tested on: HSV-1 (KOS); assay: Anti-HSV-1; assay type: cell-based, herpes simplex virus type 1; conditions: HEL cell cultures
[3] = tested on: HSV-2 (G); assay: Anti-HSV-2; assay type: cell-based, herpes simplex virus type 2; conditions: HEL cell cultures
[4] = tested on: thymidine kinase-deficient (TK−) HSV-1 KOS strain; assay type: cell-based, herpes simplex virus type 1; conditions: HEL cell cultures; for Antiviral Activity EC50 HSV-1 TK (KOS): TK-deficient, ACV-resistant strain
[5] = tested on: TK- VZV (07-1); assay type: cell-based, varicella-zoster virus
[6] = tested on: human embryonic lung (HEL) fibroblasts; assay: Minimum cytotoxic concentration, HEL cell morphology
[7] = tested on: HIV-1; assay: HIV-1 inhibition in MT-4 cell cultures; assay type: cell-based, human immunodeficiency virus type 1; conditions: HIV-1, MT-4 cells
[8] = tested on: HIV-1; assay: HIV-1 inhibition in human tonsillar tissues ex vivo; assay type: cell-based, human immunodeficiency virus type 1; conditions: HIV-1 X4LAI.04, 12 days culture

| Compound | Antiviral Activity EC50 HSV-1 (KOS) [2] | Antiviral Activity EC50 HSV-2 (G) [3] | Cytotoxicity MCC ([6]; Table 3 (HSV assays)) [µM] | Cytotoxicity MCC ([6]; Table 4 (HCMV/VZV assays)) [µM] | Antiviral Activity EC50 HSV-1 TK (KOS) [4] | also measured |
| --- | --- | --- | --- | --- | --- | --- |
| Nc1nc(O)c2ncn(COC(CO)CO)c2n1 [Compound 1, ganciclovir, reference compound] |  |  |  |  |  | Cytotoxicity MCC [1]: >100 µM |
| Nc1nc2c(ncn2CCC(CO)CO)c(=O)[nH]1 [Compound 2, penciclovir, reference compound] |  |  |  |  |  | Cytotoxicity MCC [1]: >100 µM |
| Nc1nc(O)c2ncn(CSC(CO)CO)c2n1 [Compound 3] | sub-micromolar activity | sub-micromolar activity |  |  |  |  |
| CC(C)(NP(=O)(OCC(CO)OCn1cnc2c(=O)[nH]c(N)nc21)Oc1ccccc1)C(=O)OCc1ccccc1 (stereo not shown) [Compound 20] |  |  | >100 | >50 |  | fold difference in EC50 values between HSV-1 TK+ and TK− strains [4]: < 2.5 fold; fold more active than ACV against VZV TK− 07-1 strain [5]: ≥ 20 fold |
| C[C@H](NP(=O)(OCC(CO)OCn1cnc2c(=O)[nH]c(N)nc21)Oc1ccccc1)C(=O)OCc1ccccc1 (stereo partly shown) [Compound 27] |  |  | >100 | >100 |  | fold more active than ACV against VZV TK− 07-1 strain [5]: ≥ 20 fold |
| C[C@H](NP(=O)(OCC(CCn1cnc2c(=O)[nH]c(/N=C/N(C)C)nc21)COP(=O)(N[C@@H](C)C(=O)OCc1ccccc1)Oc1ccccc1)Oc1ccccc1)C(=O)OCc1ccccc1 (stereo partly shown) [Compound 30] | inactive | inactive | >100 |  | inactive |  |
| C[C@H](NP(=O)(OCC(CCn1cnc2c(=O)[nH]c(/N=C/N(C)C)nc21)COP(=O)(N[C@@H](C)C(=O)OCc1ccccc1)Oc1cccc2ccccc12)Oc1cccc2ccccc12)C(=O)OCc1ccccc1 (stereo partly shown) [Compound 31] | inactive | inactive |  |  | inactive |  |
| C[C@H](NP(=O)(OCC(CCn1cnc2c(=O)[nH]c(N)nc21)COP(=O)(N[C@@H](C)C(=O)OCc1ccccc1)Oc1cccc2ccccc12)Oc1cccc2ccccc12)C(=O)OCc1ccccc1 (stereo partly shown) [Compound 37] | inactive | inactive |  | >50 | inactive |  |
| CC(C)(NP(=O)(OCC(CCn1cnc2c(=O)[nH]c(N)nc21)COP(=O)(NC(C)(C)C(=O)OCc1ccccc1)Oc1ccccc1)Oc1ccccc1)C(=O)OCc1ccccc1 (stereo not shown) [Compound 38] | inactive | inactive | >100 | >50 | inactive |  |
| CC(C)(NP(=O)(OCC(CCn1cnc2c(=O)[nH]c(N)nc21)COP(=O)(NC(C)(C)C(=O)OCc1ccccc1)Oc1cccc2ccccc12)Oc1cccc2ccccc12)C(=O)OCc1ccccc1 (stereo not shown) [Compound 40] | inactive | inactive | 100 | >50 | inactive |  |
| C[C@H](NP(=O)(OCC(CO)CCn1cnc2c(=O)[nH]c(N)nc21)Oc1ccccc1)C(=O)OCc1ccccc1 (stereo partly shown) [Compound 42] |  |  | >100 | >50 |  | selectivity index (ratio IC50/EC50) [7]: > 15 |
| C[C@H](NP(=O)(OCC(COP(=O)(N[C@@H](C)C(=O)OCc1ccccc1)Oc1ccccc1)SCn1cnc2c(=O)[nH]c(N)nc21)Oc1ccccc1)C(=O)OCc1ccccc1 (stereo partly shown) [Compound 55] |  |  |  |  |  | Anti-HIV Activity EC50 [8]: did not inhibit HIV |
| C[C@H](NP(=O)(OCC(CCn1cnc2c(Cl)nc(N)nc21)COP(=O)(N[C@@H](C)C(=O)OCc1ccccc1)Oc1ccccc1)Oc1ccccc1)C(=O)OCc1ccccc1 (stereo partly shown) [Compound 59] |  |  |  |  |  | fold loss in antiviral activity versus mono-ProTide 60 [7]: 7 fold |
| COc1nc(N)nc2c1ncn2CCC(CO)COP(=O)(N[C@@H](C)C(=O)OCc1ccccc1)Oc1ccccc1 (stereo partly shown) [Compound 66] |  |  |  |  | retention of some activity | selectivity index (ratio IC50/EC50) [7]: 21 |
| CCOC(=O)[C@H](C)NP1(=O)OCC(OCn2cnc3c(=O)[nH]c(N)nc32)CO1 (stereo partly shown) [Compound 74] |  |  |  |  |  | selectivity index (ratio IC50/EC50) [7]: > 7 |
